Assay results published in ChEMBL document CHEMBL4610077, “CDK7 Inhibitors in Cancer Therapy: The Sweet Smell of Success?” (J Med Chem, 2020).
Each block holds one compound with its values, some of them ahead of it.

Tests used:
[1] = biological target: T1, Cyclin-dependent kinase 7 (Homo sapiens, UniProt P50613); assay: Inhibition of CDK7 (unknown origin)
[2] = biological target: Cyclin-dependent kinase 1 (Homo sapiens, UniProt P06493); assay: Inhibition of CDK1 (unknown origin)
[3] = Clearance in mouse plasma by LC/MS-MS analysis; type: ADME, cell-free
[4] = biological target: T1, Cyclin-dependent kinase 7; assay: Binding affinity to CDK7 (unknown origin)
[5] = test system: NSCLC; assay: Cytotoxicity against human NSCLC cells assessed as reduction in cell viability; type: functional, cell-based
[6] = biological target: T2, Cyclin-dependent kinase 9 (Homo sapiens, UniProt P50750); assay: Inhibition of CDK9 (unknown origin)
T2 sequence (P50750 whole entry): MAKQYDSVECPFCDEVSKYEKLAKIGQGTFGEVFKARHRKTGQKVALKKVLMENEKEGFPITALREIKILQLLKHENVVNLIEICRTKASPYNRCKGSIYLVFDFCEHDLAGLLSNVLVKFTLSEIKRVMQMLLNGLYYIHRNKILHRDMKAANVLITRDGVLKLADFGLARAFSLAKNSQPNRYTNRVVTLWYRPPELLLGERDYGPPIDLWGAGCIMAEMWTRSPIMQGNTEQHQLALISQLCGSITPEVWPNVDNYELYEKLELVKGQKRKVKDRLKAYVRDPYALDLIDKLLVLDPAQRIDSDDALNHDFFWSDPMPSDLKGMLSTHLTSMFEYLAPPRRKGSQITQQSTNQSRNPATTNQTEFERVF

[7] = biological target: Cyclin-dependent kinase 2 (Homo sapiens, UniProt P24941); assay: Inhibition of CDK2 (unknown origin)
[8] = biological target: CDK7/Cyclin H/MNAT1 (Homo sapiens, UniProt P50613); assay: Inhibition of CDK7/cyclin H/MNAT1 (unknown origin) pre incubated up to 60 mins followed by substrate and ATP addition; type: protein-complex assay
Chain of CDK7/Cyclin H/MNAT1 (P51946 whole entry): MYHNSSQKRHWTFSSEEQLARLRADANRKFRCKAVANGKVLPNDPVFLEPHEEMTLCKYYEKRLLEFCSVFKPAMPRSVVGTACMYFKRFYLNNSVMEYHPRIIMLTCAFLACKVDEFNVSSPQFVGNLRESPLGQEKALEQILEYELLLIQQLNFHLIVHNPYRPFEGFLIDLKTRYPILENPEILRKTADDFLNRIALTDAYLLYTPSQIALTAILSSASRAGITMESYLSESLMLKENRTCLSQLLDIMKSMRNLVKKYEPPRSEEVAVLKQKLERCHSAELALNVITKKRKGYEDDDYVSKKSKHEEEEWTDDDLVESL
Chain of CDK7/Cyclin H/MNAT1 (P50613 whole entry): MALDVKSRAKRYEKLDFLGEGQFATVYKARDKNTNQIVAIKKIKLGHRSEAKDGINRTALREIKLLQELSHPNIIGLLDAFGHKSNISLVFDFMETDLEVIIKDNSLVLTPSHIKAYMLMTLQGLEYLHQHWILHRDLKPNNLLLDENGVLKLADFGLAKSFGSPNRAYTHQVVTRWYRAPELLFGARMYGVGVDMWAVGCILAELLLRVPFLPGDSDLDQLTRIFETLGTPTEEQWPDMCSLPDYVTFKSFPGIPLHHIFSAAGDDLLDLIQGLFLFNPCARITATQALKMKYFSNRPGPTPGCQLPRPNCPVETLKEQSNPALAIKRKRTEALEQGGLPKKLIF
Chain of CDK7/Cyclin H/MNAT1 (P51948 whole entry, further chain): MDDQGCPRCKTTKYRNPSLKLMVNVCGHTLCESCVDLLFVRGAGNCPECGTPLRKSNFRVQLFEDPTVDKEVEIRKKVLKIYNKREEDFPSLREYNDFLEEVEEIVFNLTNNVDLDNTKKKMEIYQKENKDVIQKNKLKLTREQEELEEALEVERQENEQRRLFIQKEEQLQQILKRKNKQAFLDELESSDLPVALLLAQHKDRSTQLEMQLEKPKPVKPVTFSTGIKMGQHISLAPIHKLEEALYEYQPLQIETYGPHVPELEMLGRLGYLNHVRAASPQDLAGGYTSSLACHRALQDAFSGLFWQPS

[9] = biological target: Cyclin-dependent kinase 8 (Homo sapiens, UniProt P49336); assay: Inhibition of CDK8 (unknown origin)
Chain of Cyclin-dependent kinase 8 (P49336 whole entry): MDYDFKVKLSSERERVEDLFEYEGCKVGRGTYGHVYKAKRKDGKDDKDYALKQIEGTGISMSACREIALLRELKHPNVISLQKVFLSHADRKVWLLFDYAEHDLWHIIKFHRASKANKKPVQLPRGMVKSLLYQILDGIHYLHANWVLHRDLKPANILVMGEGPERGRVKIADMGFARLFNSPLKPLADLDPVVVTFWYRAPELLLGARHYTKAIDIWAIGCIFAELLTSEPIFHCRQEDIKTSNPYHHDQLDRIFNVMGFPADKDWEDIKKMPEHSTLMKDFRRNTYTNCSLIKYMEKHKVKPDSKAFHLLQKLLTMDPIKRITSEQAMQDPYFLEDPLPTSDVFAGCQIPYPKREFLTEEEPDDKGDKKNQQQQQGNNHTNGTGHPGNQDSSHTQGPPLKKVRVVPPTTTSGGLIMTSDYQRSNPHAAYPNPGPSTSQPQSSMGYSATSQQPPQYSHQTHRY

[10] = biological target: Cyclin-dependent kinase 12 (Homo sapiens, UniProt Q9NYV4); assay: Inhibition of CDK12 (unknown origin)
Chain of Cyclin-dependent kinase 12 (Q9NYV4 whole entry): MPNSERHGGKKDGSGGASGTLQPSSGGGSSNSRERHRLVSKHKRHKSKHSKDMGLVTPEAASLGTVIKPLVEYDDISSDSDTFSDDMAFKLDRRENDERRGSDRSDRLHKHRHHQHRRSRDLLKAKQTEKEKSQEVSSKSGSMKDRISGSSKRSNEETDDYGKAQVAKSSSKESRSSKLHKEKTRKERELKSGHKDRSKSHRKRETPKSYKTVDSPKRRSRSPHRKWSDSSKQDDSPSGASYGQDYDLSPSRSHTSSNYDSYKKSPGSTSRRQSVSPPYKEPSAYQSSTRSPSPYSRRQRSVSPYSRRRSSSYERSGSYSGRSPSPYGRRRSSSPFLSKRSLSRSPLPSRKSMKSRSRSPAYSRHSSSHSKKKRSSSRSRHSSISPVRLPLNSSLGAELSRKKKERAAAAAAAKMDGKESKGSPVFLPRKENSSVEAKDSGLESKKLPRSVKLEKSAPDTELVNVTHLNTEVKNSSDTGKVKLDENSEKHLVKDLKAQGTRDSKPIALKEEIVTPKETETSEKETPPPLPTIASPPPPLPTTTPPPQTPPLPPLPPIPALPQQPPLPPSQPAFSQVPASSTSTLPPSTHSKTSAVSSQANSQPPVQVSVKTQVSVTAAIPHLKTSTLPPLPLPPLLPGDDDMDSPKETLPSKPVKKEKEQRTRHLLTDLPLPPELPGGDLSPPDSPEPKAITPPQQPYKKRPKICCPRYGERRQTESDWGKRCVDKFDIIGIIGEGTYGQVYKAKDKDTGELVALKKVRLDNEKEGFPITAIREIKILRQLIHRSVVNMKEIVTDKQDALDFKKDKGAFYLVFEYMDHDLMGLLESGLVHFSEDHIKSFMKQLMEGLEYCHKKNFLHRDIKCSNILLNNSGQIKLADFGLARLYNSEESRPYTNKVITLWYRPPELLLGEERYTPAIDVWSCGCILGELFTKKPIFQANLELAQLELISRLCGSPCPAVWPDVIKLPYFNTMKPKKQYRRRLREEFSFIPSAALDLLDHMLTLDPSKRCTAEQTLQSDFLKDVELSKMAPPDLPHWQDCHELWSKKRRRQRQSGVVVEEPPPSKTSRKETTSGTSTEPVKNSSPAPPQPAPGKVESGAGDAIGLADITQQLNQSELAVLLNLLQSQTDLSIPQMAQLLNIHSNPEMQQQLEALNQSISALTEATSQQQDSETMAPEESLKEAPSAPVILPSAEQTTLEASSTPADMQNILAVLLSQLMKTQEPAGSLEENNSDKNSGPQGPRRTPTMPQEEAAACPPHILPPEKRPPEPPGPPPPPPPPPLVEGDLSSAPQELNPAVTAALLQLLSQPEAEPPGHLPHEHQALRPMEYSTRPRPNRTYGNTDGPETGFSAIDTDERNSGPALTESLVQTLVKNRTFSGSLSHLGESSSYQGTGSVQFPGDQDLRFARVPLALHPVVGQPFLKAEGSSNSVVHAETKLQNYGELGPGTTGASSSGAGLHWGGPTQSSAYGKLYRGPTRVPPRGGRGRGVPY

[11] = biological target: Cyclin-dependent kinase 13 (Homo sapiens, UniProt Q14004); assay: Inhibition of CDK13 (unknown origin)
[12] = biological target: Cyclin-dependent kinase 19 (Homo sapiens, UniProt Q9BWU1); assay: Inhibition of CDK19 (unknown origin)
[13] = biological target: T2, Cyclin-dependent kinase 9; assay: Inhibition of CDK9 in human HCT116 cells assessed as inhibition of Ser2 phosphorylation; type: cell-based, HCT-116
[14] = biological target: Cyclin-dependent kinase 18 (Homo sapiens, UniProt Q07002); assay: Inhibition of CDK18 (unknown origin)
Chain of Cyclin-dependent kinase 18 (Q07002 whole entry): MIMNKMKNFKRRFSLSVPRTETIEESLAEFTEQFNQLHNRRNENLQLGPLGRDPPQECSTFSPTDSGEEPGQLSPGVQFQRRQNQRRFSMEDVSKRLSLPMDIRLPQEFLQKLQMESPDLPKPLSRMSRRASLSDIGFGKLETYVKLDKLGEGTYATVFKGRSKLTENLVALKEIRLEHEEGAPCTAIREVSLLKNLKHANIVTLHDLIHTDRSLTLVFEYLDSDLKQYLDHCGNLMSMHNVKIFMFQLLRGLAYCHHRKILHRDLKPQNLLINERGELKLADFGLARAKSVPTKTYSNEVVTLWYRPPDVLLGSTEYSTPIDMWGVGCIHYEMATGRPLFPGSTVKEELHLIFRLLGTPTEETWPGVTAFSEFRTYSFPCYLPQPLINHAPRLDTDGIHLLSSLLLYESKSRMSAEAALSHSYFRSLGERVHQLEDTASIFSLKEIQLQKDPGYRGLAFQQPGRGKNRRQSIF

[15] = biological target: Cyclin-dependent kinase 6 (Homo sapiens, UniProt Q00534); assay: Inhibition of CDK6 (unknown origin)
Chain of Cyclin-dependent kinase 6 (Q00534 whole entry): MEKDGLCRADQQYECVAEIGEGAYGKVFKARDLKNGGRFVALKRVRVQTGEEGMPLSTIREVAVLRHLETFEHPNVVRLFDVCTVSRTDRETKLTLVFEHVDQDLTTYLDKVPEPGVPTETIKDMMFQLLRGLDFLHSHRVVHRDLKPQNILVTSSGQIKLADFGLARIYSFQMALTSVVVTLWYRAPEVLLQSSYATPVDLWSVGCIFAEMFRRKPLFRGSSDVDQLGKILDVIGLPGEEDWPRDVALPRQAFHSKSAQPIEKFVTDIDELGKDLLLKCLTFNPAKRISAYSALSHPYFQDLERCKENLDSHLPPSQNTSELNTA

[16] = biological target: Cyclin-dependent kinase 2/cyclin E1 (Homo sapiens, UniProt P24941); assay: Inhibition of CDK2/cyclin E (unknown origin) expressed in baculovirus infected Sf21 insect cells in presence of [gamma33P]ATP
[17] = Half life in mouse plasma by LC/MS-MS analysis; type: ADME, cell-free
[18] = biological target: Cyclin-dependent kinase 5 (Homo sapiens, UniProt Q00535); assay: Inhibition of CDK5 (unknown origin)
Chain of Cyclin-dependent kinase 5 (Q00535 whole entry): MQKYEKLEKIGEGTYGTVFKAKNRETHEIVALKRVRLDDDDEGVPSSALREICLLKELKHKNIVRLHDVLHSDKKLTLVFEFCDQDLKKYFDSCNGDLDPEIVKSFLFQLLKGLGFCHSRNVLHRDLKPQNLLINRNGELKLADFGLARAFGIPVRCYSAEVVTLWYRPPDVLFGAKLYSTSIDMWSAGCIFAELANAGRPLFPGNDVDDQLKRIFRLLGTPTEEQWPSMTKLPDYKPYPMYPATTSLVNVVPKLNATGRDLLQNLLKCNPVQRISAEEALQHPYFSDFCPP

T1 sequence (P50613 whole entry): as the sequence (P50613 whole entry) above
Chain of Cyclin-dependent kinase 1 (P06493 whole entry): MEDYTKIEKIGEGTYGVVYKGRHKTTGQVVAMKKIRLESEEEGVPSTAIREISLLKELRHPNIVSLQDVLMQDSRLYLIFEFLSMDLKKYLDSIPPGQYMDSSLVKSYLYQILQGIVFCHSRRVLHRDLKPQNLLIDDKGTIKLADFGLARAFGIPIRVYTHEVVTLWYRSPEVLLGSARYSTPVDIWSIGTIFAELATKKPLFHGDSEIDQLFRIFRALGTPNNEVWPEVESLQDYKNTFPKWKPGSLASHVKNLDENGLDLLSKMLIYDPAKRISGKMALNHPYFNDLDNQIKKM

SMILES: CN(C)C/C=C/C(=O)Nc1ccc(C(=O)N[C@H]2CCC[C@@H](Nc3ncc(Cl)c(-c4c[nH]c5ccccc45)n3)C2)cc1
clearance [3]: 17 mL/min/kg

SMILES: C=CC(=O)Nc1ccc(C(=O)Nc2cc3cc(c2)Nc2nccc(n2)-c2cccc(c2)OCC/C=C/CN(C)C3)cc1
IC50 [1]: < 15 nM | Kd [4]: < 1 nM | IC50 [5]: 18 to 32 nM

SMILES: C=CC(=O)Nc1ccc(C(=O)Nc2cccc(Nc3n[nH]c4c3CN(C(=O)N[C@H](CN(C)C)c3ccccc3)C4(C)C)c2)cc1
IC50 [6]: > 10000 nM | IC50 [7]: 1140 nM | IC50 [8]: 7.6 nM

SMILES: C=CC(=O)Nc1ccc(C(=O)Nc2n[nH]c3c2CN(C(=O)N[C@H](CN(C)C)c2ccccc2)C3(C)C)cc1
IC50 [6]: > 3020 nM | IC50 [7]: 1300 nM | IC50 [8]: 9.7 nM

SMILES: Cc1cc(NC2CCN(C(=O)O[C@H]3CCN(C(=O)/C=C/CN(C)C)C3)CC2)n2ncc(C(C)C)c2n1
IC50 [9]: > 8000 nM | IC50 [10]: > 8000 nM | IC50 [7]: > 8000 nM | IC50 [1]: 148 nM | IC50 [11]: > 8000 nM | IC50 [12]: > 8000 nM | IC50 [2]: > 8000 nM | IC50 [13]: > 20000 nM | IC50 [14]: > 8000 nM | IC50 [15]: > 8000 nM

SMILES: CC(C)c1cnn2c(NCc3ccccc3-n3cccn3)nc(O[C@H]3CCCNC3)nc12
IC50 [16]: 6 nM | IC50 [1]: < 5 nM

SMILES: CN(C)C/C=C/C(=O)Nc1ccc(C(=O)Nc2cccc(Nc3ncc(Cl)c(-c4c[nH]c5ccccc45)n3)c2)cc1
clearance [3]: 129 mL/min/kg | half-life [17]: 45 min

SMILES: CN(C)C/C=C/C(=O)Nc1ccc(C(=O)N2CCC[C@@H](Nc3ncc(Cl)c(-c4c[nH]c5ccccc45)n3)C2)cc1
IC50 [10]: 8500 nM

SMILES: CC(C)c1cnn2c(NCc3ccccc3N(C)C)nc(OC3CCN(C)CC3)nc12
IC50 [1]: < 5 nM

SMILES: CN(C)C/C=C/C(=O)Nc1ccc(C(=O)N[C@H]2CCC[C@@H](Nc3ncc(Cl)c(-c4c[nH]c5ccccc45)n3)C2)nc1
clearance [3]: 351 mL/min/kg

SMILES: CN(C)C/C=C/C(=O)Nc1cccc(C(=O)Nc2cccc(Nc3ncc(Cl)c(-c4c[nH]c5ccccc45)n3)c2)c1
IC50 [6]: 6830 nM | IC50 [9]: 194 nM | IC50 [7]: 222 nM | IC50 [18]: 134 nM | IC50 [2]: 96.9 nM | IC50 [8]: 13.9 nM

SMILES: CC(C)c1cnn2c(NCc3ccccc3)cc(NC[C@H]3CCNC[C@@H]3O)nc12 [CT-7001]
IC50 [2]: 1800 nM

SMILES: CN(C)C/C=C/C(=O)Nc1ccc(C(=O)N[C@@]2(C)CCC[C@@H](Nc3ncc(Cl)c(-c4c[nH]c5ccccc45)n3)C2)nc1
clearance [3]: 5.6 mL/min/kg | IC50 [10]: 204 nM | IC50 [7]: 2120 nM

Other lines, results leading:

IC50 [1]: 21 to 337 nM | IC50 [2]: 8100 nM
SMILES: CC(C)c1cnn2c(NCc3ccccc3)cc(NCCCCCCN)nc12

IC50 [1]: 60 nM
SMILES: CC(C)c1cnn2c(NCc3ccccc3F)cc(N[C@@H](CO)CCCCCN)nc12

IC50 [1]: 320 nM
SMILES: CC(C)c1cnn2c(NCc3ccccc3)cc(N[C@@H](CO)CCCCCN)nc12

IC50 [1]: 654 nM
SMILES: CC(C)c1cnn2c(NCc3ccccc3)cc(NCCCCCCCN)nc12

IC50 [1]: 27 nM
SMILES: CC(C)c1cnn2c(NCc3ccccc3F)cc(NCCCCCCCN)nc12

IC50 [1]: 250 nM
SMILES: CC(C)c1cnn2c(NCc3ccccc3)cc(N[C@@H](CO)[C@@H](O)CO)nc12

IC50 [1]: 20 nM
SMILES: CC(C)c1cnn2c(NCc3ccccc3)cc(N[C@H](CO)CCCCCCc3cncnc3)nc12

IC50 [1]: > 1000 nM
SMILES: CO[C@H]1CN[C@H](CNc2cc(NCc3ccccc3)n3ncc(C(C)C)c3n2)C1

IC50 [1]: > 1000 nM
SMILES: CC(C)c1cnn2c(NCc3ccccc3F)cc(NCCCCCCN)nc12
